Measurements: patent publication US8247211B2, “Glycopeptide antibiotics” (American Cyanamid Company, priority 2001, dated 2012)

Experiments:
Assay in all cases: In vitro antibacterial evaluation: minimum inhibitory concentration (MIC), broth dilution method
Assay type in all cases: cell-based
Escherichia coli [1] = tested on: Escherichia coli
Staphylococcus sp. = conditions: 18 hours at 35° C.
How it was run: (§1)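 Using Muller-Hinton II […] and an inoculum of 5×10^5 CFU/mL, antibiotic dilutions from 64 down to 0.06 μg/mL were tested following NCCLS M7-A2. The MIC is the lowest concentration inhibiting growth, including in methicillin-, penicillin- or vancomycin-resistant clinical isolates.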

Escherichia coli [2] = tested on: Escherichia coli; remark: listed apart in the source
How it was run: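 Inoculum: 5×10^5 CFU/mL. Range: 64-0.06 μg/mL. Medium: Muller-Hinton II […]; NCCLS M7-A2 broth dilution. Endpoint: lowest concentration inhibiting growth. Strains include methicillin-, penicillin- and/or vancomycin-resistant clinical isolates.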

Streptococcus sp. = conditions: 18 hours at 35° C.
How it was run: as §1

Enterococcus sp. = tested on: Enterococcus sp.
How it was run: as §1

[3] = Staphylococcus aureus (ATCC 29213)
[4] = Staphylococcus aureus (GC 1131)
[5] = Staphylococcus aureus (GC 4541)
[6] = Staphylococcus aureus (GC 4542)
[7] = Staphylococcus aureus (GC 4544)
[8] = Staphylococcus aureus (GC 4545)
[9] = broth dilution, strain ATCC 29213
[10] = Streptococcus agalactiae (GC 4564)
[11] = Streptococcus pneumoniae (GC 4565)
[12] = Enterococcus faecalis (ATCC 29212)
[13] = Enterococcus faecalis (GC 2242), 18 hours at 35° C.
[14] = Enterococcus faecalis (GC 4552), 18 hours at 35° C.
[15] = Enterococcus faecalis (GC 4553)
[16] = Enterococcus faecalis (GC 4554)
[17] = broth dilution, 18 hours at 35° C., strain ATCC 29212
[18] = broth dilution, 18 hours at 35° C., strain GC 2242
[19] = broth dilution, 18 hours at 35° C., strain GC 2243
[20] = broth dilution, 18 hours at 35° C., strain GC 4552
[21] = broth dilution, 18 hours at 35° C., strain GC 4553
[22] = broth dilution, 18 hours at 35° C., strain GC 4554
[23] = broth dilution, 18 hours at 35° C., strain GC 4556
[24] = broth dilution, 18 hours at 35° C., strain GC 4557
[25] = broth dilution, 18 hours at 35° C., strain GC 4558

Substance: β-O-[(Cyclohexylamino)carbonyl]-cyclo[glycyl-β-methylphenylalanyl-O-(4-O-hexonyranosylhexopyranosyl)tyrosyl-3-(2-iminoimidazolidin-4-yl)seryl-3-(3-hexopyranosyl-2-iminoimidazolidin-4-yl)serylseryl] [Example 256a]
- MIC Escherichia coli (ATCC 25922) (Escherichia coli [1]): >64 µg/mL
- MIC Coagulase Negative Staphylococcus (GC 4547) (Staphylococcus sp.): >64 µg/mL
- MIC Coagulase Negative Staphylococcus (GC 4548) (Staphylococcus sp.): >64 µg/mL
- MIC Coagulase Negative Staphylococcus (GC 4549) (Staphylococcus sp.): >64 µg/mL
- MIC Coagulase Negative Staphylococcus (GC 4551) (Staphylococcus sp.): >64 µg/mL
- MIC Coagulase Negative Staphylococcus (ID-3941) (Staphylococcus sp.; Coagulase Negative Staphylococcus (ID-3941)): 64 µg/mL
- MIC Staphylococcus aureus (ATCC 29213) (Staphylococcus sp.; [3]): >64 µg/mL
- MIC Staphylococcus aureus (GC 1131) (Staphylococcus sp.; [4]): >64 µg/mL
- MIC Staphylococcus aureus (GC 4541) (Staphylococcus sp.; [5]): >64 µg/mL
- MIC Staphylococcus aureus (GC 4542) (Staphylococcus sp.; [6]): >64 µg/mL
- MIC Staphylococcus aureus (GC 4544) (Staphylococcus sp.; [7]): >64 µg/mL
- MIC Staphylococcus aureus (GC 4545) (Staphylococcus sp.; [8]): >64 µg/mL
- MIC Staphylococcus aureus-SMITH (GC 4543) (Staphylococcus sp.): >64 µg/mL
- MIC Staphylococcus haemolyticus (GC 4546) (Staphylococcus sp.): >64 µg/mL
- MIC Staphylococcus aureus (ATCC 29213) (Staphylococcus sp.; [9]): >64 µg/mL
- MIC Staphylococcus aureus (GC 1131) (Staphylococcus sp.; broth dilution, strain GC 1131): >64 µg/mL
- MIC Staphylococcus aureus (GC 4541) (Staphylococcus sp.; broth dilution, strain GC 4541): >64 µg/mL
- MIC Staphylococcus aureus (GC 4542) (Staphylococcus sp.; broth dilution, strain GC 4542): >64 µg/mL
- MIC Staphylococcus aureus (GC 4544) (Staphylococcus sp.; broth dilution, strain GC 4544): >64 µg/mL
- MIC Staphylococcus aureus (GC 4545) (Staphylococcus sp.; broth dilution, strain GC 4545): >64 µg/mL
- MIC Escherichia coli (GC 4559) (Escherichia coli [2]): >64 µg/mL
- MIC Escherichia coli (GC 4560) (Escherichia coli [2]): 8 µg/mL
- MIC Streptococcus agalactiae (GC 4564) (Streptococcus sp.; [10]): >64 µg/mL
- MIC Streptococcus pneumoniae (GC 4565) (Streptococcus sp.; [11]): 64 µg/mL
- MIC Streptococcus pyogenes (ID-3187) (Streptococcus sp.; Streptococcus pyogenes (ID-3187)): 64 µg/mL
- MIC Streptococcus agalactiae (GC 4564) (Streptococcus sp.; broth dilution, strain GC 4564): >64 µg/mL
- MIC Streptococcus pneumoniae (GC 4565) (Streptococcus sp.; broth dilution, strain GC 4565): 64 µg/mL
- MIC Streptococcus pyogenes (ID-3187) (Streptococcus sp.; broth dilution, strain ID-3187): 64 µg/mL
- MIC Enterococcus avium (GC 4558) (Enterococcus sp.; Enterococcus avium (GC 4558)): >64 µg/mL
- MIC Enterococcus faecalis (ATCC 29212) (Enterococcus sp.; [12]): >64 µg/mL
- MIC Enterococcus faecalis (GC 2242) (Enterococcus sp.; [13]): >64 µg/mL
- MIC Enterococcus faecalis (GC 4552) (Enterococcus sp.; [14]): >64 µg/mL
- MIC Enterococcus faecalis (GC 4553) (Enterococcus sp.; [15]): >64 µg/mL
- MIC Enterococcus faecalis (GC 4554) (Enterococcus sp.; [16]): >64 µg/mL
- MIC Enterococcus faecium (GC 2243) (Enterococcus sp.; Enterococcus faecium (GC 2243)): >64 µg/mL
- MIC Enterococcus faecium (GC 4556) (Enterococcus sp.; Enterococcus faecium (GC 4556)): >64 µg/mL
- MIC Enterococcus faecium (GC 4557) (Enterococcus sp.; Enterococcus faecium (GC 4557)): 32 µg/mL
- MIC Enterococcus faecalis (ATCC 29212) (Enterococcus sp.; [17]): >64 µg/mL
- MIC Enterococcus faecalis (GC 2242) (Enterococcus sp.; [18]): >64 µg/mL
- MIC Enterococcus faecium (GC 2243) (Enterococcus sp.; [19]): >64 µg/mL
- MIC Enterococcus faecalis (GC 4552) (Enterococcus sp.; [20]): >64 µg/mL
- MIC Enterococcus faecalis (GC 4553) (Enterococcus sp.; [21]): >64 µg/mL
- MIC Enterococcus faecalis (GC 4554) (Enterococcus sp.; [22]): >64 µg/mL
- MIC Enterococcus faecium (GC 4556) (Enterococcus sp.; [23]): >64 µg/mL
- MIC Enterococcus faecium (GC 4557) (Enterococcus sp.; [24]): 32 µg/mL
- MIC Enterococcus avium (GC 4558) (Enterococcus sp.; [25]): >64 µg/mL

Substance: α-O-[(Benzylamino)carbonyl]-cyclo[glycyl-β-methylphenylalanyl-O-(4-O-hexopyranosylhexopyranosyl)tyrosyl-3(2-iminoimidazolidin-4-yl)seryl-3-(3-hexopyranosyl-2-iminoimidazolidin-4-yl)serylseryl] [Example 257]
- MIC Escherichia coli (ATCC 25922) (Escherichia coli [1]): >0.5 µg/mL
- MIC Coagulase Negative Staphylococcus (GC 4547) (Staphylococcus sp.): 2 µg/mL
- MIC Coagulase Negative Staphylococcus (GC 4548) (Staphylococcus sp.): 2 µg/mL
- MIC Coagulase Negative Staphylococcus (GC 4549) (Staphylococcus sp.): 2 µg/mL
- MIC Coagulase Negative Staphylococcus (GC 4551) (Staphylococcus sp.): 8 µg/mL
- MIC Coagulase Negative Staphylococcus (GC 6257) (Staphylococcus sp.; Coagulase Negative Staphylococcus (GC 6257)): 1 µg/mL
- MIC Staphylococcus aureus (ATCC 29213) (Staphylococcus sp.; [3]): 0.5 µg/mL
- MIC Staphylococcus aureus (GC 1131) (Staphylococcus sp.; [4]): 0.5 µg/mL
- MIC Staphylococcus aureus (GC 3051) (Staphylococcus sp.; Staphylococcus aureus (GC 3051)): 0.5 µg/mL
- MIC Staphylococcus aureus (GC 3053) (Staphylococcus sp.; Staphylococcus aureus (GC 3053)): 0.5 µg/mL
- MIC Staphylococcus aureus (GC 4541) (Staphylococcus sp.; [5]): 0.5 µg/mL
- MIC Staphylococcus aureus (GC 4542) (Staphylococcus sp.; [6]): 0.5 µg/mL
- MIC Staphylococcus aureus (GC 4544) (Staphylococcus sp.; [7]): 0.5 µg/mL
- MIC Staphylococcus aureus (GC 4545) (Staphylococcus sp.; [8]): 0.5 µg/mL
- MIC Staphylococcus aureus-SMITH (GC 4543) (Staphylococcus sp.): 0.5 µg/mL
- MIC Staphylococcus haemolyticus (GC 4546) (Staphylococcus sp.): 2 µg/mL
- MIC Staphylococcus aureus (ATCC 29213) (Staphylococcus sp.; [9]): 0.5 µg/mL
- MIC Staphylococcus aureus (GC 1131) (Staphylococcus sp.; broth dilution, strain GC 1131): 0.5 µg/mL
- MIC Staphylococcus aureus (GC 3051) (Staphylococcus sp.; broth dilution, strain GC 3051): 0.5 µg/mL
- MIC Staphylococcus aureus (GC 3053) (Staphylococcus sp.; broth dilution, strain GC 3053): 0.5 µg/mL
- MIC Staphylococcus aureus (GC 4541) (Staphylococcus sp.; broth dilution, strain GC 4541): 0.5 µg/mL
- MIC Staphylococcus aureus (GC 4542) (Staphylococcus sp.; broth dilution, strain GC 4542): 0.5 µg/mL
- MIC Staphylococcus aureus (GC 4544) (Staphylococcus sp.; broth dilution, strain GC 4544): 0.5 µg/mL
- MIC Staphylococcus aureus (GC 4545) (Staphylococcus sp.; broth dilution, strain GC 4545): 0.5 µg/mL
- MIC Escherichia coli (GC 4559) (Escherichia coli [2]): >0.5 µg/mL
- MIC Escherichia coli (GC 4560) (Escherichia coli [2]): 0.5 µg/mL
- MIC Streptococcus agalactiae (GC 4564) (Streptococcus sp.; [10]): 2 µg/mL
- MIC Streptococcus pneumoniae (ATCC 6301) (Streptococcus sp.; Streptococcus pneumoniae (ATCC 6301)): 0.25 µg/mL
- MIC Streptococcus pneumoniae (GC 1894) (Streptococcus sp.; Streptococcus pneumoniae (GC 1894)): 0.25 µg/mL
- MIC Streptococcus pneumoniae (GC 4565) (Streptococcus sp.; [11]): 1 µg/mL
- MIC Streptococcus pyogenes (GC 4563) (Streptococcus sp.; Streptococcus pyogenes (GC 4563)): 0.12 µg/mL
- MIC Streptococcus pneumoniae (ATCC 6301) (Streptococcus sp.; broth dilution, strain ATCC 6301): 0.25 µg/mL
- MIC Streptococcus pneumoniae (GC 1894) (Streptococcus sp.; broth dilution, strain GC 1894): 0.25 µg/mL
- MIC Streptococcus pyogenes (GC 4563) (Streptococcus sp.; broth dilution, strain GC 4563): 0.12 µg/mL
- MIC Streptococcus agalactiae (GC 4564) (Streptococcus sp.; broth dilution, strain GC 4564): 2 µg/mL
- MIC Streptococcus pneumoniae (GC 4565) (Streptococcus sp.; broth dilution, strain GC 4565): 1 µg/mL
- MIC Enterococcus avium (GC 4558) (Enterococcus sp.; Enterococcus avium (GC 4558)): 0.5 µg/mL
- MIC Enterococcus faecalis (ATCC 29212) (Enterococcus sp.; [12]): 0.5 µg/mL
- MIC Enterococcus faecalis (GC 2242) (Enterococcus sp.; [13]): 0.5 µg/mL
- MIC Enterococcus faecalis (GC 2691) (Enterococcus sp.; Enterococcus faecalis (GC 2691), 18 hours at 35° C.): 0.5 µg/mL
- MIC Enterococcus faecalis (GC 3059) (Enterococcus sp.; Enterococcus faecalis (GC 3059), 18 hours at 35° C.): 0.5 µg/mL
- MIC Enterococcus faecalis (GC 4552) (Enterococcus sp.; [14]): >0.5 µg/mL
- MIC Enterococcus faecalis (GC 4553) (Enterococcus sp.; [15]): 0.5 µg/mL
- MIC Enterococcus faecalis (GC 4554) (Enterococcus sp.; [16]): >0.5 µg/mL
- MIC Enterococcus faecalis (GC 6189) (Enterococcus sp.; Enterococcus faecalis (GC 6189)): 0.5 µg/mL
- MIC Enterococcus faecium (GC 2243) (Enterococcus sp.; Enterococcus faecium (GC 2243)): 16 µg/mL
- MIC Enterococcus faecium (GC 4556) (Enterococcus sp.; Enterococcus faecium (GC 4556)): 16 µg/mL
- MIC Enterococcus faecium (GC 4557) (Enterococcus sp.; Enterococcus faecium (GC 4557)): 2 µg/mL
- MIC Enterococcus faecalis (ATCC 29212) (Enterococcus sp.; [17]): 0.5 µg/mL
- MIC Enterococcus faecalis (GC 2242) (Enterococcus sp.; [18]): 0.5 µg/mL
- MIC Enterococcus faecium (GC 2243) (Enterococcus sp.; [19]): 16 µg/mL
- MIC Enterococcus faecalis (GC 2691) (Enterococcus sp.; broth dilution, 18 hours at 35° C., strain GC 2691): 0.5 µg/mL
- MIC Enterococcus faecalis (GC 3059) (Enterococcus sp.; broth dilution, 18 hours at 35° C., strain GC 3059): 0.5 µg/mL
- MIC Enterococcus faecalis (GC 4552) (Enterococcus sp.; [20]): >0.5 µg/mL
- MIC Enterococcus faecalis (GC 4553) (Enterococcus sp.; [21]): 0.5 µg/mL
- MIC Enterococcus faecalis (GC 4554) (Enterococcus sp.; [22]): >0.5 µg/mL
- MIC Enterococcus faecium (GC 4556) (Enterococcus sp.; [23]): 16 µg/mL
- MIC Enterococcus faecium (GC 4557) (Enterococcus sp.; [24]): 2 µg/mL
- MIC Enterococcus avium (GC 4558) (Enterococcus sp.; [25]): 0.5 µg/mL
- MIC Enterococcus faecalis (GC 6189) (Enterococcus sp.; broth dilution, 18 hours at 35° C., strain GC 6189): 0.5 µg/mL
